The source of these data is PubChem BioAssay AID330 (DTP/NCI, 2004).

Each structure is given as a SMILES string. Inconclusive results and toxic doses are left out.

The test system of this assay is P388 leukemia ip, CD2F1 mice, survival T/C. As to the kind of experiment: NCI In Vivo Anticancer Drug Screen. Data for tumor model P388 Leukemia (intraperitoneal) in CD2F1 (CDF1) mice. Conditions: endpoint: median survival time, higher = longer survival. The method, boiled down:
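Mice carrying the transplanted tumor received test compound or vehicle. Survival was recorded in each group, and the value is the treated-group measurement divided by that of the vehicle-treated control group.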

The mark [1] stands for this setting: dose: 25.0 mg/kg/injection, schedule: Q01DX009 (ip), vehicle: saline with Tween-80.
The mark [2] stands for this setting: dose: 50.0 mg/kg/injection, schedule: Q01DX009 (ip), vehicle: saline with Tween-80.

As for `COc1ccc(CC2C(=O)NC(C)C(=O)N(C)C3C(=O)N(C)C(Cc4ccc(O)c(c4)Oc4ccc(cc4)C3O)C(=O)NC(C)C(=O)NC(C)C(=O)N2C)cc1` (centres undefined), the T/C reads like this: (dose: 0.03 mg/kg/injection, schedule: Q01DX009 (ip), vehicle: Klucel (hydroxypropylcellulose) (HPC)) 94 % of control; (dose: 0.03 mg/kg/injection, schedule: Q01DX009 (ip), vehicle: saline + alcohol) 100 % of control; (dose: 0.03 mg/kg/injection, schedule: Q03HX024 (ip), vehicle: saline + alcohol) 123 % of control; (dose: 0.06 mg/kg/injection, schedule: Q01DX009 (ip), vehicle: Klucel (hydroxypropylcellulose) (HPC)) 102 % of control; (dose: 0.06 mg/kg/injection, schedule: Q01DX009 (ip), vehicle: saline + alcohol) 106 % of control; (dose: 0.06 mg/kg/injection, schedule: Q03HX008 (ip), vehicle: saline + alcohol) 118 % of control. In addition, the T/C by setting is: (dose: 0.06 mg/kg/injection, schedule: Q03HX016 (ip), vehicle: saline + alcohol) 122 % of control; (dose: 0.12 mg/kg/injection, schedule: Q01DX009 (ip), vehicle: Klucel (hydroxypropylcellulose) (HPC)) 104 % of control; (dose: 0.12 mg/kg/injection, schedule: Q01DX009 (ip), vehicle: saline + alcohol) 111 % of control; (dose: 0.13 mg/kg/injection, schedule: Q03HX024 (ip), vehicle: other) 103 % of control; (dose: 0.13 mg/kg/injection, schedule: Q03HX024 (ip), vehicle: saline + alcohol) 153 % of control; (dose: 0.25 mg/kg/injection, schedule: Q01DX005 (ip), vehicle: saline) 116 % of control. Besides, the T/C by setting is: (dose: 0.25 mg/kg/injection, schedule: Q01DX005 (iv), vehicle: other) 100 % of control; (dose: 0.25 mg/kg/injection, schedule: Q01DX005 (iv), vehicle: saline) 107 % of control; (dose: 0.25 mg/kg/injection, schedule: Q01DX009 (ip), vehicle: Klucel (hydroxypropylcellulose) (HPC)) 113 % of control; (dose: 0.25 mg/kg/injection, schedule: Q01DX009 (sc), vehicle: other) 95 % of control; (dose: 0.25 mg/kg/injection, schedule: Q03HX008 (ip), vehicle: other) 120 % of control; (dose: 0.25 mg/kg/injection, schedule: Q03HX016 (ip), vehicle: other) 100 % of control. In addition, the T/C (dose: 0.25 mg/kg/injection, schedule: Q03HX024 (ip), vehicle: other) was 91 % of control; the T/C (dose: 0.25 mg/kg/injection, schedule: Q03HX024 (ip), vehicle: saline + alcohol) was 157 % of control; the T/C (dose: 0.5 mg/kg/injection, schedule: Q01DX005 (iv), vehicle: other) was 98 % of control; the T/C (dose: 0.5 mg/kg/injection, schedule: Q01DX005 (iv), vehicle: saline) is 114 % of control; the T/C (dose: 0.5 mg/kg/injection, schedule: Q01DX009 (ip), vehicle: clinical formulation) was 157 % of control; the T/C (dose: 0.5 mg/kg/injection, schedule: Q01DX009 (ip), vehicle: water) was 154 % of control. Further, the T/C is, setting by setting: (dose: 0.5 mg/kg/injection, schedule: Q01DX009 (oral), vehicle: other) 98 % of control; (dose: 0.5 mg/kg/injection, schedule: Q01DX009 (sc), vehicle: other) 99 % of control; (dose: 0.5 mg/kg/injection, schedule: Q03HX016 (ip), vehicle: saline + alcohol) 150 % of control; (dose: 0.5 mg/kg/injection, schedule: Q03HX024 (ip), vehicle: saline + alcohol) 172 % of control; (dose: 1.0 mg/kg/injection, schedule: Q01DX001 (ip), vehicle: other) 122 % of control; (dose: 1.0 mg/kg/injection, schedule: Q01DX001 (oral), vehicle: other) 103 % of control. For the same compound, the T/C (dose: 1.0 mg/kg/injection, schedule: Q01DX005 (ip), vehicle: saline) is 158 % of control; the T/C (dose: 1.0 mg/kg/injection, schedule: Q01DX005 (iv), vehicle: other) was 99 % of control; the T/C (dose: 1.0 mg/kg/injection, schedule: Q01DX009 (ip), vehicle: Klucel (hydroxypropylcellulose) (HPC)) is 113 % of control; the T/C (dose: 1.0 mg/kg/injection, schedule: Q01DX009 (ip), vehicle: clinical formulation) is 198 % of control; the T/C (dose: 1.0 mg/kg/injection, schedule: Q01DX009 (ip), vehicle: other) was 167 % of control; the T/C (dose: 1.0 mg/kg/injection, schedule: Q01DX009 (ip), vehicle: saline + alcohol) is 172 % of control. Further, the T/C (dose: 1.0 mg/kg/injection, schedule: Q01DX009 (ip), vehicle: water) is 166 % of control; the T/C (dose: 1.0 mg/kg/injection, schedule: Q01DX009 (oral), vehicle: other) was 95 % of control; the T/C (dose: 1.0 mg/kg/injection, schedule: Q01DX009 (sc), vehicle: other) was 95 % of control; the T/C (dose: 2.0 mg/kg/injection, schedule: Q01DX001 (oral), vehicle: other) was 97 % of control; the T/C (dose: 2.0 mg/kg/injection, schedule: Q01DX005 (ip), vehicle: other) was 167 % of control; the T/C (dose: 2.0 mg/kg/injection, schedule: Q01DX005 (ip), vehicle: saline) is 166 % of control. Also, the T/C reads like this: (dose: 2.0 mg/kg/injection, schedule: Q01DX009 (ip), vehicle: clinical formulation) 195 % of control; (dose: 2.0 mg/kg/injection, schedule: Q01DX009 (ip), vehicle: other) 183 % of control; (dose: 2.0 mg/kg/injection, schedule: Q01DX009 (ip), vehicle: saline + alcohol) 184 % of control; (dose: 2.0 mg/kg/injection, schedule: Q01DX009 (ip), vehicle: water) 184 % of control; (dose: 2.0 mg/kg/injection, schedule: Q01DX009 (oral), vehicle: other) 122 % of control; (dose: 2.0 mg/kg/injection, schedule: Q04DX003 (ip), vehicle: other) 155 % of control. The T/C runs as follows: (dose: 4.0 mg/kg/injection, schedule: Q01DX001 (oral), vehicle: other) 100 % of control; (dose: 4.0 mg/kg/injection, schedule: Q01DX005 (ip), vehicle: other) 165 % of control; (dose: 4.0 mg/kg/injection, schedule: Q01DX009 (ip), vehicle: Klucel (hydroxypropylcellulose) (HPC)) 116 % of control; (dose: 4.0 mg/kg/injection, schedule: Q01DX009 (ip), vehicle: other) 94 % of control; (dose: 4.0 mg/kg/injection, schedule: Q01DX009 (ip), vehicle: saline + alcohol) 103 % of control; (dose: 4.0 mg/kg/injection, schedule: Q01DX009 (oral), vehicle: other) 122 % of control. For the same compound, the T/C is 155 % of control (dose: 4.0 mg/kg/injection, schedule: Q04DX003 (ip), vehicle: other); 152 % of control (dose: 4.0 mg/kg/injection, schedule: Q08DX002 (ip), vehicle: other); 104 % of control (dose: 8.0 mg/kg/injection, schedule: Q01DX001 (oral), vehicle: other); 92 % of control (dose: 8.0 mg/kg/injection, schedule: Q01DX009 (oral), vehicle: other); 163 % of control (dose: 8.0 mg/kg/injection, schedule: Q04DX003 (ip), vehicle: other); 95 % of control (dose: 16.0 mg/kg/injection, schedule: Q01DX001 (oral), vehicle: other). The T/C is 150 % of control (dose: 500.0 micrograms/kg/injection, schedule: Q01DX009 (ip), vehicle: saline with Tween-80); 177 % of control (dose: 1000.0 micrograms/kg/injection, schedule: Q01DX009 (ip), vehicle: saline with Tween-80); 152 % of control (dose: 2000.0 micrograms/kg/injection, schedule: Q01DX009 (ip), vehicle: saline with Tween-80).

As to `CC(c1ccccc1)C(OC(=O)c1ccc([N+](=O)[O-])cc1)c1ccccc1` (centres undefined), the T/C was 100 % of control (dose: 12.5 mg/kg/injection, schedule: Q01DX009 (ip), vehicle: saline with Tween-80); 100 % of control under setting [1]; 90 % of control under setting [2].

For `COc1cc(C(=O)c2c(OC)cccc2C(=O)O)c(OC)cc1C`, the T/C by setting is: under setting [1], 101 % of control; under setting [2], 105 % of control; (dose: 100.0 mg/kg/injection, schedule: Q01DX009 (ip), vehicle: saline with Tween-80) 110 % of control; (dose: 200.0 mg/kg/injection, schedule: Q01DX009 (ip), vehicle: saline with Tween-80) 99 % of control; (dose: 400.0 mg/kg/injection, schedule: Q01DX009 (ip), vehicle: saline with Tween-80) 99 % of control.

Regarding `CC[C@H](C)[C@H](NC(=O)OC(C)(C)C)C(=O)ON1C(=O)CCC1=O`, the T/C is 109 % of control (dose: 50.0 mg/kg/injection, schedule: Q01DX005 (ip), vehicle: saline with Tween-80); 113 % of control (dose: 100.0 mg/kg/injection, schedule: Q01DX005 (ip), vehicle: saline with Tween-80); 109 % of control (dose: 200.0 mg/kg/injection, schedule: Q01DX005 (ip), vehicle: saline with Tween-80).
